For 15 molecules, IC50 and EC50 results are on record in US20130109682A1, “CYCLIC ETHER COMPOUNDS USEFUL AS KINASE INHIBITORS” (NOVARTIS AG, priority 2010, published 2013).

Experiment [1] concerns the target GSK3β (Homo sapiens, UniProt P49841). Put plainly: GSK3β ATP depletion assay. Conditions: ATP depletion assay; read-out: GSK3b IC50. It counts as biochemical. Summed up:
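Kinase activity is read as ATP consumption: luciferase luminescence reports the ATP remaining once roughly half of the 2 μM ATP is used. Reaction mix: 5 nM GSK3β, 10 μM b-CREB peptide, 50 mM Tris pH 7.5, 15 mM MgCl2, 1 mM DTT, 0.1% BSA, 2.5% DMSO. Enzyme and peptide are preincubated 15 min before ATP is added.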

Experiment [2] concerns the target PIM1 (Homo sapiens, UniProt P11309). Put plainly: Pim 1 AlphaScreen assay (high ATP). The experiment is classed as biochemical. The conditions noted are these: read-out: Pim1 IC50. How it is done:
(§1) Pim1, Pim2, Pim3 AlphaScreen Assay Pim 1, Pim 2 & Pim 3 AlphaScreen assays using high ATP (11-125×ATP Km) were used to determine the biochemical activity of the inhibitors. The activity of Pim 1, Pim 2, & Pim 3 is measured using a homogeneous bead based system quantifying the amount of phosphorylated peptide substrate resulting from kinase-catalyzed phosphoryl transfer to a peptide substrate. Compounds to be tested are dissolved in 100% DMSO and directly distributed to a white 384-well plate at […] per well. To start the reaction, 5 μl of 100 nM Bad peptide (Biotin-AGAGRSRHSSYPAGT —OH) and ATP (concentrations described below) in assay buffer (50 mM Hepes, pH=7.5, 5 mM MgCl2, 0.05% BSA, 0.01% Tween-20, 1 mM DTT) is added to each well. This is followed by the addition of 5 μl/well of Pim 1, Pim 2 or Pim 3 kinase in assay buffer (concentrations described below). Final assay concentrations (described below) are in 2.5% DMSO. The reactions are performed for ˜2 hours, then stopped by the addition of 10 μl of 0.75 μg/ml anti-phospho Ser/Thr antibody (Cell Signaling), 10 μg/ml Protein A AlphaScreen beads (Perkin Elmer), and 10 μg/ml streptavidin coated AlphaScreen beads in stop/detection buffer (50 mM EDTA, 95 mM Tris, pH=7.5, 0.01% Tween-20). The stopped reactions are incubated overnight in the dark. The phosphorylated peptide is detected via an […] initiated chemiluminescence/fluorescence cascade using the Envision plate reader (Perkin Elmer).
(§2) IC50, the half maximal inhibitory concentration, represents the concentration of a test compound that is required for 50% inhibition of its target in vitro under the described assay conditions.
(Bead proximity is the source of the signal in Alpha formats.)

Experiment [3] deals with PIM2 (Homo sapiens, UniProt Q9P1W9). Put plainly: Pim 2 AlphaScreen assay (high ATP). It counts as biochemical. The conditions noted are these: read-out: Pim2 IC50. Summed up: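 IC50 values rest on detection of phosphorylated Bad peptide: after a ~2 h kinase reaction, an EDTA stop buffer containing anti-phospho Ser/Thr antibody, Protein A and streptavidin AlphaScreen beads was added and read after overnight dark incubation. ATP was high (11-125× Km), with 2.5% DMSO in pH 7.5 Hepes buffer containing MgCl2, BSA, Tween-20 and DTT.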

For experiment [4], the target named is PIM3 (Homo sapiens, UniProt Q86V86). Briefly: Pim 3 AlphaScreen assay (high ATP). It counts as biochemical. Conditions: read-out: Pim3 IC50. How it is done: as §1, §2
For experiment [5], the system named is KMS11 (human myeloma cell line). Put plainly: Cell proliferation assay (CellTiter-Glo), KMS11. The conditions noted are these: Homo sapiens, KMS-11; KMS11 cells, cell proliferation; read-out: KMS11-Luc EC50. The experiment is classed as cell-based. The method in brief: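 EC50 derived from CellTiter-Glo luminescence after 3-day exposure at 37° C. Compound was diluted to 2× in medium and added to an equal volume of cells. KMS11 myeloma cells were plated on assay day at 2000/well in IMDM with 10% FBS and sodium pyruvate.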
In general terms: ATP-based viability assays read luminescence as a measure of living cells.

Chain of PIM1 (P11309 whole entry): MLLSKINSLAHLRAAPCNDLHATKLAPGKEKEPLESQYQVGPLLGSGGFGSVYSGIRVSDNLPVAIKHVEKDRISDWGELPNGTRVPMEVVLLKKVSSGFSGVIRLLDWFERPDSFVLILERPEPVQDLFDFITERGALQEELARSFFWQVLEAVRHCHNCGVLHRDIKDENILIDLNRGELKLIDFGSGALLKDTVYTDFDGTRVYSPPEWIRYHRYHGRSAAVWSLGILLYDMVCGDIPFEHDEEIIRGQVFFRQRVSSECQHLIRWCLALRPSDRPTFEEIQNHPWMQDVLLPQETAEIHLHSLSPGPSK
Chain of PIM2 (Q9P1W9 whole entry): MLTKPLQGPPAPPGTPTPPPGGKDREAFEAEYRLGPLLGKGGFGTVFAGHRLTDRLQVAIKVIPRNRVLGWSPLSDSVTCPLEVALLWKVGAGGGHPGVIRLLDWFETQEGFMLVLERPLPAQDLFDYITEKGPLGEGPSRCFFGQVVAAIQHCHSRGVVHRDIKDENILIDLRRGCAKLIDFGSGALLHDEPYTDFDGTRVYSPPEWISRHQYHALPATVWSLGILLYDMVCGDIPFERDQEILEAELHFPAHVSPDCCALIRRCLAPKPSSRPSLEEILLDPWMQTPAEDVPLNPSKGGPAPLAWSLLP
Chain of GSK3β (P49841 whole entry, species assumed): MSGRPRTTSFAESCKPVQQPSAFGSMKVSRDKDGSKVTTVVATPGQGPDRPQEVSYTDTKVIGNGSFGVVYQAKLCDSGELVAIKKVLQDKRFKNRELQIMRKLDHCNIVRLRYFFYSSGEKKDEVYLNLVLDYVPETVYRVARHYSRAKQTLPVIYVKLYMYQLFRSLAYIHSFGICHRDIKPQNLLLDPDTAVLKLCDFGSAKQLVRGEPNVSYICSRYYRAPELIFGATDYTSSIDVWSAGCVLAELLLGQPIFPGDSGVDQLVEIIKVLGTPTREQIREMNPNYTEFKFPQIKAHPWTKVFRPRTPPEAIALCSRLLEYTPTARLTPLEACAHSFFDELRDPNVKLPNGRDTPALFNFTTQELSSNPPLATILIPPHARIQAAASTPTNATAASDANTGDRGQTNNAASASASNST

Usually IC50 stands for the concentration needed to halve the response being measured. On to `CC(C)C1OC(c2ccncc2NC(=O)c2nc(-c3c(F)cccc3F)ncc2N)C[C@H](N)[C@H]1O` (stereo in doubt) [Example 273, 5-amino-N-(4-((2S,4S,5R,6R)-4-amino-5-hydroxy-6-isopropyltetrahydro-2H-pyran-2-yl)pyridin-3-yl)-2-(2,6-difluorophenyl)pyrimidine-4-carboxamide], for which the IC50 in experiment [1] was 16100 nM; in experiment [2] it was 23.1 nM; in experiment [3], 660 nM; in experiment [4], 512 nM.

For `CC(C)C1OC(c2ccncc2NC(=O)c2ccc(F)c(-c3c(F)cccc3F)n2)C[C@H](N)[C@H]1O` (stereo in doubt) [Example 274, N-(4-((2S,4S,5R,6R)-4-amino-5-hydroxy-6-isopropyltetrahydro-2H-pyran-2-yl)pyridin-3-yl)-6-(2,6-difluorophenyl)-5-fluoropicolinamide], the concentration for half-maximal inhibition (IC50) in experiment [1] was found to be 10700 nM; in experiment [2], 4.7 nM; in experiment [3], 305 nM; in experiment [4] it was 95.7 nM.

As to `CC[C@H]1O[C@@H](c2ccncc2NC(=O)c2ccc(F)c(-c3c(F)cccc3F)n2)C[C@@H](N)[C@]1(C)O` (stereo in doubt) [Example 275, N-(4-((2R,4R,5S,6R)-4-amino-6-ethyl-5-hydroxy-5-methyltetrahydro-2H-pyran-2-yl)pyridin-3-yl)-6-(2,6-difluorophenyl)-5-fluoropicolinamide], the IC50 was found to be 16600 nM in experiment [1], 2.62 nM in experiment [2], 234 nM in experiment [3] and 51.9 nM in experiment [4].

Take `CC[C@@H]1O[C@H](c2ccncc2NC(=O)c2ccc(F)c(-c3c(F)cccc3F)n2)C[C@H](N)[C@@]1(C)O` (stereo in doubt) [Example 276, N-(4-((2S,4S,5R,6S)-4-amino-6-ethyl-5-hydroxy-5-methyltetrahydro-2H-pyran-2-yl)pyridin-3-yl)-6-(2,6-difluorophenyl)-5-fluoropicolinamide]: the IC50 in experiment [1] came to 20900 nM; in experiment [2] it was 0.47 nM; in experiment [3], 17.4 nM; in experiment [4] it was 4.6 nM.

One may read the EC50 as the midpoint of the concentration-response curve. `C[C@H]1O[C@@H](c2ccncc2NC(=O)c2csc(-c3c(F)cccc3F)n2)C[C@@H](N)[C@]1(C)O` [Example 221, N-(4-((2R,4R,5S,6R)-4-amino-5-hydroxy-5,6-dimethyltetrahydro-2H-pyran-2-yl)pyridin-3-yl)-2-(2,6-difluorophenyl)thiazole-4-carboxamide]: the IC50 in experiment [1] was determined as 74.6 nM; in experiment [2] it was 0.64 nM; in experiment [4] it was 18.7 nM. Also, the EC50 in experiment [5] was determined as 7720 nM.

Regarding `C[C@@H]1O[C@H](c2ccncc2NC(=O)c2csc(-c3c(F)cccc3F)n2)C[C@H](N)[C@@]1(C)O` [Example 222, N-(4-((2S,4S,5R,6S)-4-amino-5-hydroxy-5,6-dimethyltetrahydro-2H-pyran-2-yl)pyridin-3-yl)-2-(2,6-difluorophenyl)thiazole-4-carboxamide], the IC50 in experiment [1] worked out at 3060 nM; in experiment [2], 10.3 nM; in experiment [4], 189 nM. Also, in experiment [5], the EC50 is over 10000 nM.

As to `N[C@H]1C[C@@H](c2ccncc2NC(=O)c2ccc(F)c(-c3c(F)cccc3F)n2)O[C@H]2CCC[C@H]21` [Example 223, N-(4-((2S,4S,4aS,7aS)-4-aminooctahydrocyclopenta[b]pyran-2-yl)pyridin-3-yl)-6-(2,6-difluorophenyl)-5-fluoropicolinamide], the IC50 in experiment [1] came out at 9830 nM; in experiment [2], 4.62 nM; in experiment [4], 201 nM. In addition, in experiment [5], the EC50 was 4380 nM.

Consider `COc1cc(NC(=O)c2ccc(F)c(-c3c(F)cccc3F)n2)c([C@H]2C[C@@H](O)[C@H](O)[C@@H](CO)O2)cn1` [Example 225, 6-(2,6-difluorophenyl)-N-(5-((2R,4R,5S,6R)-4,5-dihydroxy-6-(hydroxymethyl)tetrahydro-2H-pyran-2-yl)-2-methoxypyridin-4-yl)-5-fluoropicolinamide], for which the results for the IC50 in experiment [1], in experiment [2] and in experiment [4] were over 25000 nM, 14600 nM and over 25000 nM, respectively. Besides, the EC50 in experiment [5] was over 10000 nM.

Consider `O=C(Nc1cc(=O)[nH]cc1[C@H]1C[C@@H](O)[C@H](O)[C@@H](CO)O1)c1ccc(F)c(-c2c(F)cccc2F)n1` [Example 226, 6-(2,6-difluorophenyl)-N-(5-((2R,4R,5S,6R)-4,5-dihydroxy-6-(hydroxymethyl)tetrahydro-2H-pyran-2-yl)-2-oxo-1,2-dihydropyridin-4-yl)-5-fluoropicolinamide], for which the IC50 in experiment [1] came out at 10600 nM; in experiment [2], 1430 nM; in experiment [4], 23500 nM. Also, the EC50 in experiment [5] was over 10000 nM.

Consider `N[C@@H]1C[C@H](c2ccncc2NC(=O)c2csc(-c3c(F)cccc3F)n2)O[C@@H]2CCC[C@H]12` [Example 231, N-(4-((2R,4R,4aR,7aR)-4-aminooctahydrocyclopenta[b]pyran-2-yl)pyridin-3-yl)-2-(2,6-difluorophenyl)thiazole-4-carboxamide], for which the IC50 in experiment [1] was 53.2 nM; in experiment [2], 0.24 nM; in experiment [4] it was 14.6 nM. Further, the EC50 in experiment [5] was 5820 nM.

For the molecule `N[C@@H]1C[C@H](c2ccncc2NC(=O)c2ccc(F)c(-c3c(F)cccc3F)n2)O[C@H](C2CC2)[C@H]1O` [Example 235, N-(4-((2R,4R,5S,6R)-4-amino-6-cyclopropyl-5-hydroxytetrahydro-2H-pyran-2-yl)pyridin-3-yl)-6-(2,6-difluorophenyl)-5-fluoropicolinamide], the half-maximal inhibitory concentration (IC50) is 7420 nM in experiment [1], 0.35 nM in experiment [2], 9.9 nM in experiment [3] and 7.6 nM in experiment [4].

As for `N[C@H]1C[C@@H](c2ccncc2NC(=O)c2ccc(F)c(-c3c(F)cccc3F)n2)O[C@@H](C2CC2)[C@@H]1O` [Example 236, N-(4-((2S,4S,5R,6S)-4-amino-6-cyclopropyl-5-hydroxytetrahydro-2H-pyran-2-yl)pyridin-3-yl)-6-(2,6-difluorophenyl)-5-fluoropicolinamide], the IC50 was over 25000 nM in experiment [1], 3.67 nM in experiment [2], 209 nM in experiment [3] and 116 nM in experiment [4].

On to `N[C@@H]1C[C@H](c2ccncc2NC(=O)c2ccnc(-c3c(F)cccc3F)n2)O[C@@H]2CCCC[C@]12O` [Example 237, N-(4-((2R,4R,4aS,8aR)-4-amino-4a-hydroxyoctahydro-2H-chromen-2-yl)pyridin-3-yl)-2-(2,6-difluorophenyl)pyrimidine-4-carboxamide], for which the IC50 in experiment [1] turned out to be 13 nM; in experiment [2], 3.37 nM; in experiment [3], 70 nM; in experiment [4], 24 nM.

Turning to `CC[C@]1(O)[C@H](N)C[C@H](c2ccncc2NC(=O)c2nc(-c3c(F)cccc3F)ncc2N)O[C@@H]1C` [Example 239, 5-amino-N-(4-((2R,4R,5S,6R)-4-amino-5-ethyl-5-hydroxy-6-methyltetrahydro-2H-pyran-2-yl)pyridin-3-yl)-2-(2,6-difluorophenyl)pyrimidine-4-carboxamide], the 50% inhibitory concentration (IC50) came to 352 nM in experiment [1], 0.92 nM in experiment [2], 24 nM in experiment [3] and 8.4 nM in experiment [4].

Regarding `N[C@@H]1C[C@H](c2ccncc2NC(=O)c2ccc(F)c(-c3c(F)cccc3F)n2)O[C@@H]2CCC(=O)N[C@@H]12` [Example 241, N-(4-((2R,4R,4aS,8aR)-4-amino-6-oxooctahydro-2H-pyrano[3,2-b]pyridin-2-yl)pyridin-3-yl)-6-(2,6-difluorophenyl)-5-fluoropicolinamide], the IC50 in experiment [1] is 6300 nM; in experiment [2], 20.8 nM; in experiment [3], 393 nM; in experiment [4], 132 nM.
